{"source": "patent US7279548B2", "about": "“Identification and isolation of novel polypeptides having WW domains and methods of using same” (Cytogen Corporation, priority 1996, dated 2007)", "note": "Entries after “also recorded” stand apart in the source; their conditions may differ. No end group written: not given here. *: point of attachment. Biotin = O=C1N[C@H]2[C@H](CS[C@H]2CCCCC(=O)*)N1", "data": [{"target": "T1, WWP3 WW domain expressed as GST fusion protein (Homo sapiens, UniProt Q96QZ7)", "T1 construct": "made in house", "T1 sequence (Q96QZ7 300-337 limits assumed)": "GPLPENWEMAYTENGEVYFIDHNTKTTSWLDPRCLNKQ", "experiment": "ELISA based cross affinity mapping, WWP3 WW domain", "type": "binding", "conditions": "biotinylated peptide-streptavidin/alkaline phosphatase complex", "experimental": "The 16 day mouse embryo cDNA expression library was diluted 1:1000 in SM solution (100 mM NaCl, 8 mM MgSOv4, 50 mM Tris HCl pH 7.5, 0.01% gelatin). To a sterile test tube, 2 μl of diluted mouse embryo library, 100 μl of 10 mM CaCl2, 100 μl of 10 mM MgCl2 and 100 μl of BL21(DE3)pLysE bacterial cells (grown overnight) were added and incubated for 30 minutes at 37° C. The contents of the tube were mixed with 3 ml of 0.6% top agarose, containing […] chloramphenicol, and poured onto a 2xYT plate (90 mm diameter). For a large primary screen, 10–20 plates were prepared with 3×10^4 pfu per plate. After 6 hours incubation at 37° C., a nitrocellulose filter soaked in 10 mM isopropyl-β-D-thiogalactopyranoside (IPTG) was overlaid on each plate and incubated 3–6 hours at 37° C. Before the filters were removed from the plates, they were marked asymmetrically with India ink in a 18 gauge syringe needle. The plates were stored at 4° C. until ready for the secondary screen. The filters were washed with PBS (137 mM NaCl, 2.7 mM KCl, 4.3 mM Na2HPO4, 1.4 mM KH2PO4)-0.05% Triton X-100 three times at room temperature, 15 minutes each wash, and then placed in a plastic bag containing non-specific blocking solution (PBS-2% BSA) for one hour. In the meantime, 1 ml of 1 mM biotinylated peptide in PBS-0.1% Tween 20 was added to 20 ml of 1 mg/ml streptavidin-alkaline phosphatase (SA-AP) in PBS-0.1% Tween 20 and incubated at 4° C. for 30 minutes. As an alternative method of forming multivalent complexes, 50 pmol biotinylated peptide could have been incubated with 2 μg SA-AP (for a biotin:biotin-binding site ratio of 1:1). Excess biotin-binding sites would then be blocked by addition of 500 pmol biotin. As a further alternative, 31.2 μl of 1 mg/ml SA-AP could have been incubated with 15 μl of 0.1 mM biotinylated peptide for 30 min at 4° C. Ten μl of 0.1 mM biotin would then be added, and the solution incubated for an additional 15 min.\nTo determine the ligand preferences of the novel WW omain-containing clones described in Sections 6.1 and 6.1.1, as well as addressing the issue of whether peptides containing PPPPY (SEQ ID NO:3)-like motifs derived from a variety of proteins could also serve as recognition units and bind to these clones, a cross affinity mapping experiment was performed (FIGS. 15A–D). The peptides shown in FIGS. 15A–D were synthesized, biotinylated, complexed with streptavidin-alkaline phosphatase, and tested in an ELISA based assay for their ability to bind to the twelve individual novel WW domains of WWP1, WWP2, WWP3 and WWP4 which were expressed as GST fusion proteins. The ELISA based cross-affinity experiments were performed essentially as described by Sparks et al. (1996, Proc. Natl. Acad. Sci. 93:1540–1544) with the following modifications. Briefly, microtiter wells were coated with 1–5 μg of fusion protein in 100 mM NaHCO3, blocked with SuperBlock TBS (Pierce) and washed four times with PBS, 0.05% Tween 20. Specific peptide-streptavidin/alkaline phosphatase complexes were added as above and unbound complexes washed five times with PBS, 0.05% Tween 20. Following addition of PNP substrate (p-nitrophenyl phosphate, Kirkegard & Perry Labs), peptide binding was quantitated after 30 min. at O.D. 405 nm. Relative binding measurements from three independent determinations were assigned to a scale as follows: O.D. units 0–0.5=(−), 0.5–1.0=(+), 1.0–2.0=(++), 2.0–3.0=(+++), >3.0=(++++). Peptide binding to human Fyn and Lyn SH3 and SH2 domains was assessed by a filter binding assay (see Section 6.1 and Sparks et al., 1996, Proc. Natl. Acad. Sci 93:1540–1544). […]", "values": [{"substance": "Biotin-SGSGYVQPPPPPYPGPM [WBP-2A]", "binding to WWP3 WW domain": "specifically binds; also recorded: bound"}, {"substance": "Biotin-SGSGPGTPPPPYTVGPGY [WBP-1]", "binding to WWP3 WW domain": "not"}, {"substance": "Biotin-SGSGPGTPYPPPPEFY [WBP-2B]", "binding to WWP3 WW domain": "not"}]}]}
